According to patent US8609690B2, “Aryl- and heteroarylcarbonyl derivatives of substituted nortropanes, medicaments containing such compounds and their use” (Boehringer Ingelheim International GmbH, priority 2008, dated 2013):

Target: T1, 11β-HSD 1 (Homo sapiens, UniProt P28845)
T1 construct: detecting cortisol generated from cortisterone by human liver microsomes; from tissue; host or cells: human liver microsomes
Assay: In vitro inhibition of 11β-HSD 1, HTRF detection of cortisol generated by human liver microsomes
Format: biochemical
Settings: 1 μM test compound, 100% indicates no inhibition, zero or below zero indicates complete inhibition (relative to carbenoxolone)
Method: Briefly, compounds were incubated for 1 hour at 37° C. in Tris buffer (20 mM tris, 5 mM EDTA, pH 6.0) containing NADPH (200 μM) and cortisone (80 nM). Cortisol generated in the reaction is then detected with a competitive immunoassay, involving two HTRF conjugates: cortisol linked to XL665 and anti-cortisol antibody labeled with Europium cryptate. The incubation period for detection reaction was typically 2 hours. The amount of cortisol is determined by reading the time-resolved fluorescence of the wells (Ex 320/75 nm; Em 615/8.5 nm and 665/7.5 nm). The ratio of the two emission signals is then calculated (Em665*10000/Em615). […] Each assay also contained a calibration curve with cortisol to transform the fluorescent data into cortisol concentrations. Percent inhibition of each compound was determined relative to the carbenoxolone signal. In Table 2 the 11β-HSD 1 inhibitory activities at 1 μM concentration of test compound, determined as described above, of the compounds listed in Table 3 are compiled, wherein 100% indicates no inhibition and a value of zero or below zero indicates complete inhibition.

T1 sequence (P28845 whole entry): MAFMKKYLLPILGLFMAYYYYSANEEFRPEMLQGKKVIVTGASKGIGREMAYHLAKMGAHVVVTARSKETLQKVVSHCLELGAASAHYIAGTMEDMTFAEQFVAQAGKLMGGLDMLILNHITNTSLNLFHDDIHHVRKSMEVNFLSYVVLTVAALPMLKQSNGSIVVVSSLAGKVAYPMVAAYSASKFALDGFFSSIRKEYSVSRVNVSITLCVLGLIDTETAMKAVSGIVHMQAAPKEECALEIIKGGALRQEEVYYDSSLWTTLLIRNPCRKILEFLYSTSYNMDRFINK

Row | Structure (SMILES) | Inhibitory activity on 11β-HSD 1, % CTL | Inhibitory activity on 11β-HSD 1, % CTL (1 µM)
1 | Nc1c(Cl)cc(C(=O)N2[C@@H]3CC[C@H]2C[C@@H](c2ccc(F)cc2)C3)cc1Cl [Example 178, endo-(4-Amino-3,5-dichloro-phenyl)-[3-(4-fluoro-phenyl)-8-aza-bicyclo[3.2.1]oct-8-yl]-methanone] | −22 % CTL | –
2 | COc1ccccc1[C@H]1C[C@H]2CC[C@@H](C1)N2C(=O)c1ccc2c(c1)OCCO2 [Example 156, endo-(2,3-Dihydro-benzo[1,4]dioxin-6-yl)-[3-(2-methoxy-phenyl)-8-aza-bicyclo[3.2.1]oct-8-yl]-methanone] | −13 % CTL | –
3 | O=C(c1ccc2scnc2c1)N1[C@@H]2CC[C@H]1C[C@@H](c1ccc(F)cc1)C2 [Example 93, endo-Benzothiazol-5-yl-[3-(4-fluoro-phenyl)-8-aza-bicyclo[3.2.1]oct-8-yl]-methanone] | 38 % CTL | –
4 | CC(=O)NCc1ccc(C(=O)N2[C@@H]3CC[C@H]2C[C@@H](c2ccc(F)cc2)C3)cc1 [Example 71, endo-N-{4-[3-(4-Fluoro-phenyl)-8-aza-bicyclo[3.2.1]octane-8-carbonyl]-benzyl}-acetamide] | 41 % CTL | –
5 | Cc1ccccc1C(=O)N1[C@@H]2CC[C@H]1C[C@@H](c1ccc(F)cc1)C2 [Example 100, endo-[3-(4-Fluoro-phenyl)-8-aza-bicyclo[3.2.1]oct-8-yl]-o-tolyl-methanone] | 61 % CTL | –
6 | O=C(c1ccc2c(c1)OCCO2)N1[C@@H]2CC[C@H]1C[C@@H](c1ccc(O)cc1)C2 [Example 142, endo-(2,3-Dihydro-benzo[1,4]dioxin-6-yl)-[3-(4-hydroxy-phenyl)-8-aza-bicyclo[3.2.1]oct-8-yl]-methanone] | 31 % CTL | –
7 | N#Cc1ccc(C(=O)N2[C@@H]3CC[C@H]2C[C@@H](c2ccc(F)cc2)C3)cc1 [Example 105, endo-4-[3-(4-Fluoro-phenyl)-8-aza-bicyclo[3.2.1]octane-8-carbonyl]-benzonitrile] | 58 % CTL | –
8 | COC(=O)c1ccc([C@H]2C[C@H]3CC[C@@H](C2)N3C(=O)c2ccc3c(c2)OCCO3)cc1 [Example 154] | 59 % CTL | –
9 | CN1C(=O)Cc2cc(C(=O)N3[C@@H]4CC[C@H]3C[C@@H](c3ccc(F)cc3)C4)ccc21 [Example 78] | 49 % CTL | –
10 | O=C(c1ccc2c(c1)OC(F)(F)O2)N1[C@@H]2CC[C@H]1C[C@@H](c1ccc(F)cc1)C2 [Example 76, endo-(2,2-Difluoro-benzo[1,3]dioxol-5-yl)-[3-(4-fluoro-phenyl)-8-aza-bicyclo[3.2.1]oct-8-yl]-methanone] | 76 % CTL | –
11 | COc1cc(C(=O)N2[C@@H]3CC[C@H]2C[C@@H](c2ccc(F)cc2)C3)cc(OC)c1OC [Example 44, endo-[3-(4-Fluoro-phenyl)-8-aza-bicyclo[3.2.1]oct-8-yl]-(3,4,5-trimethoxy-phenyl)-methanone] | 57 % CTL | –
12 | Nc1nc2cc(C(=O)N3[C@@H]4CC[C@H]3C[C@@H](c3ccc(F)cc3)C4)ccc2[nH]1 [Example 48, endo-(2-Amino-1H-benzoimidazol-5-yl)-[3-(4-fluoro-phenyl)-8-aza-bicyclo[3.2.1]oct-8-yl]-methanone] | 1 % CTL | –
13 | O=C(c1cccc(F)c1)N1[C@@H]2CC[C@H]1C[C@@H](c1ccc(F)cc1)C2 [Example 104, endo-(3-Fluoro-phenyl)-[3-(4-fluoro-phenyl)-8-aza-bicyclo[3.2.1]oct-8-yl]-methanone] | 43 % CTL | –
14 | CC(C)(C)c1cc(C(=O)N2[C@@H]3CC[C@H]2C[C@@H](c2ccc(F)cc2)C3)[nH]n1 [Example 11, endo-(5-tert-Butyl-2H-pyrazol-3-yl)-[3-(4-fluoro-phenyl)-8-aza-bicyclo[3.2.1]oct-8-yl]-methanone] | 82 % CTL | –
15 | O=C(c1ccc2c(c1)OCCO2)N1[C@@H]2CC[C@H]1C[C@@H](c1ccc(Br)cc1)C2 [Example 155, endo-[3-(4-Bromo-phenyl)-8-aza-icyclo[3.2.1]oct-8-yl]-(2,3-dihydro-benzo[1,4]dioxin-6-yl)-methanone] | −17 % CTL | –
16 | O=C(c1ccc2c(c1)OCCO2)N1[C@@H]2CC[C@H]1C[C@@H](c1ccc(F)cc1)C2 [Example 3, endo-(2,3-Dihydro-benzo[1,4]dioxin-6-yl)-[3-(4-fluoro-phenyl)-8-aza-bicyclo[3.2.1]oct-8-yl]-methanone] | −32 % CTL | –

Row | Structure (SMILES) | Inhibitory activity on 11β-HSD 1, % CTL | Inhibitory activity on 11β-HSD 1, % CTL (1 µM)
17 | O=C(c1ccc2c(c1)OCCO2)N1[C@@H]2CC[C@H]1C[C@@H](c1ccc3ccccc3c1)C2 [Example 157, endo-(2,3-Dihydro-benzo[1,4]dioxin-6-yl)-(3-naphthalen-2-yl-8-aza-bicyclo[3.2.1]oct-8-yl)-methanone] | 38 % CTL | –
18 | COc1c(F)cc(C(=O)N2[C@@H]3CC[C@H]2C[C@@H](c2ccc(F)cc2)C3)cc1F [Example 168, endo-(3,5-Difluoro-4-methoxy-phenyl)-[3-(4-fluoro-phenyl)-8-aza-bicyclo[3.2.1]oct-8-yl]-methanone] | 6 % CTL | –
19 | O=C(c1ccc2c(c1)OCCO2)N1C2CCC1CC(c1ccc(Cl)cc1F)C2 (centres unmarked) [Example 144, [3-(4-Chloro-2-fluoro-phenyl)-8-aza-bicyclo[3.2.1]oct-8-yl]-(2,3-dihydro-benzo[1,4]dioxin-6-yl)-methanone] | −59 % CTL | –
20 | Cn1ccc2cc(C(=O)N3[C@@H]4CC[C@H]3C[C@@H](c3ccc(F)cc3)C4)ccc21 [Example 131, endo-[3-(4-Fluoro-phenyl)-8-aza-bicyclo[3.2.1]oct-8-yl]-(1-methyl-1H-indol-5-yl)-methanone] | −20 % CTL | –
21 | NS(=O)(=O)c1ccc(C(=O)N2[C@@H]3CC[C@H]2C[C@@H](c2ccc(F)cc2)C3)cc1 [Example 119, endo-4-[3-(4-Fluoro-phenyl)-8-aza-bicyclo[3.2.1]octane-8-carbonyl]-benzenesulfonamide] | 95 % CTL | –
22 | O=C(c1ccc2c(c1)OCCO2)N1[C@@H]2CC[C@H]1C[C@@H](c1c(F)cccc1F)C2 [Example 161, endo-[3-(2,6-Difluoro-phenyl)-8-aza-bicyclo[3.2.1]oct-8-yl]-(2,3-dihydro-benzo[1,4]dioxin-6-yl)-methanone] | −30 % CTL | –
23 | Nc1ccc(C(=O)N2[C@@H]3CC[C@H]2C[C@@H](c2ccc(F)cc2)C3)cc1F [Example 176, endo-(4-Amino-3-fluoro-phenyl)-[3-(4-fluoro-phenyl)-8-aza-bicyclo[3.2.1]oct-8-yl]-methanone] | −42 % CTL | –
24 | O=C1Cc2cc(C(=O)N3[C@@H]4CC[C@H]3C[C@@H](c3ccc(F)cc3)C4)ccc2N1 [Example 47, endo-5-[3-(4-Fluoro-phenyl)-8-aza-bicyclo[3.2.1]octane-8-carbonyl]-1,3-dihydro-indol-2-one] | −17 % CTL | –
25 | COc1ccc([C@@H]2C[C@H]3CC[C@@H](C2)N3C(=O)c2ccc3c(c2)OCCO3)cc1 [Example 135, exo-(2,3-Dihydro-benzo[1,4]dioxin-6-yl)-[3-(4-methoxy-phenyl)-8-aza-bicyclo[3.2.1]oct-8-yl]-methanone] | −35 % CTL | –
26 | NC(=O)c1ccc(C(=O)N2[C@@H]3CC[C@H]2C[C@@H](c2ccc(F)cc2)C3)cc1 [Example 81, endo-4-[3-(4-Fluoro-phenyl)-8-aza-bicyclo[3.2.1]octane-8-carbonyl]-benzamide] | – | −9 % CTL
27 | O=C1CCCN1c1ccc(C(=O)N2[C@@H]3CC[C@H]2C[C@@H](c2ccc(F)cc2)C3)cc1 [Example 65, endo-1-{4-[3-(4-Fluoro-phenyl)-8-aza-bicyclo[3.2.1]octane-8-carbonyl]-phenyl}-pyrrolidin-2-one] | 33 % CTL | –
28 | CCn1ncc(C(=O)N2[C@@H]3CC[C@H]2C[C@@H](c2ccc(C)cc2)C3)c1C [Example 38, endo-(1-Ethyl-5-methyl-1H-pyrazol-4-yl)-(3-p-tolyl-8-aza-bicyclo[3.2.1]oct-8-yl)-methanone] | 12 % CTL | –
29 | Nc1ccc(C(=O)N2[C@@H]3CC[C@H]2C[C@@H](c2ccc(F)cc2)C3)cc1 [Example 177, endo-(4-Amino-phenyl)-[3-(4-fluoro-phenyl)-8-aza-bicyclo[3.2.1]oct-8-yl]-methanone] | −44 % CTL | –
30 | O=C(c1nccc2ccccc12)N1[C@@H]2CC[C@H]1C[C@@H](c1ccc(F)cc1)C2 [Example 33, endo-[3-(4-Fluoro-phenyl)-8-aza-bicyclo[3.2.1]oct-8-yl]-isoquinolin-1-yl-methanone] | 88 % CTL | –
31 | Cc1nc(-c2cccc(C(=O)N3[C@@H]4CC[C@H]3C[C@@H](c3ccc(F)cc3)C4)c2)no1 [Example 88, endo-[3-(4-Fluoro-phenyl)-8-aza-bicyclo[3.2.1]oct-8-yl]-[3-(5-methyl-[1,2,4]oxadiazol-3-yl)-phenyl]-methanone] | 98 % CTL | –
32 | O=C(c1ccc(O)cc1)N1[C@@H]2CC[C@H]1C[C@@H](c1ccc(F)cc1)C2 [Example 130, endo-[3-(4-Fluoro-phenyl)-8-aza-bicyclo[3.2.1]oct-8-yl]-(4-hydroxy-phenyl)-methanone] | −47 % CTL | –
